Experimental data published in US4935435A, “Use of tetrazole derivatives” (May & Baker Limited, priority 1988, dated 1990).

Key:
[1] = tested on: collagen-induced arthritis in rats; assay: collagen-induced arthritis in rats (joint size by electronic calipers, erosion and inflammation); assay type: in vivo, rat
Experimental: Joint sizes were measured periodically, for 70 days, by means of electronic calipers placed across the tibio-tarsal junction.

[2] = tested on: collagen-induced arthritis in rats; assay: X-radiography of hind paws on day 71, collagen-induced arthritis in rats; assay type: in vivo; conditions: rat hind paws; 71st day; oral 30 mg/kg per day; versus control
Experimental: On the 71st day the hind paws were examined by X-radiography. Joint damage was assessed according to five parameters and scored on an arbitrary scale of 0 to 5.

## CC(=O)c1cc(F)cc(NC(=O)c2nnn[nH]2)c1O [compound A, 3'-Acetyl-5'-fluoro-2'-hydroxytetrazole-5-carboxanilide]
[1]; oral 30 mg/kg per day, 70 days, control animals increased from 7.6 mm to 8.1 mm
  mean joint diameter (tibio-tarsal junction) over the 70 days: 7.7 mm
[1]; oral, 30 mg/kg body weight per day, compared with control animals
  erosion and inflammation caused by collagen-induced arthritis: inhibited erosion and inflammation
[2]
  joint damage by X-radiography, five parameters scored on an arbitrary scale of 0 to 5: For each of the five parameters the joints of the control animals were more severely damaged than those of the treated animals
